Where two headings read alike, the source gives them in different places. Bounds are passed on as bounds.

The text below walks through data of paper PMC6332334, “3-H-[1,2]Dithiole as a New Anti-Trypanosoma cruzi Chemotype: Biological and Mechanism of Action Studies” (Molecules, 2015).

The test system of one test is T. cruzi. As to conditions: positive control of the sterol study; source not given; read-out: IC50 of terbinafine; cited from earlier work.
The subject of test [1] is membrane sterol biosynthesis in epimastigotes of Y strain of T. cruzi. Briefly: Inhibition of membrane sterol biosynthesis (qualitative TLC). Format: cell-based, Trypanosoma cruzi. The settings on record: compounds at their IC50, 72 h, 28 °C, compared to control. The protocol:
To do so, we analyzed the accumulation or depletion of some intermediates or final products of this biochemical pathway. Qualitative analyses were performed by thin layer chromatography (TLC).
The parasites, epimastigotes of Y strain of T. cruzi (DTU Tc II), were grown in 6 mL of BHT milieu in culture bottles. […] A negative control was performed with parasites in the absence of compounds. […] The extraction of membrane sterols was performed on completion of the incubation. For this purpose, the content of the culture bottle was centrifuged at 3000 rpm for 10 min, the supernatant was discarded and the pellet was suspended in sodium phosphate buffer solution (6 mL, 0.05 M, pH 7.4). Then it was centrifuged again at 3000 rpm for 10 min and the supernatant was discarded. The resulting pellet was resuspended in a chloroform/methanol (2:1) mixture (5 mL) and the suspension was kept at 4 °C for 12 h. Then, a saturated NaCl solution (5 mL) was added and the mixture extracted once with chloroform (3 mL) and once with hexane (3 mL) with care to avoid taking any aqueous phase. The extracted volume was applied to a silica gel TLC plate. Chromatography was performed eluting with hexane, two runs to identify squalene, and once with hexane/EtOAc (8:2) for ergosterol. […] Also, controls and commercial samples of ergosterol, lanosterol, cholesterol and squalene were run on the TLC plate. […]

Test [2] relates to epimastigotes of T. cruzi (Tulahuen 2 strain). Details: method as in PMID 25512408. As to conditions: reference trypanosomicidal drugs; read-out: IC50 against epimastigotes of T. cruzi (reference drugs); cited from earlier work.
In test [3] the target is T1, cruzipain (Trypanosoma cruzi, UniProt P25779).
T1 construct: endogenous in cells; host or cells: T. cruzi epimastigotes, Tulahuen 2 strain
T1 sequence (P25779 123-467): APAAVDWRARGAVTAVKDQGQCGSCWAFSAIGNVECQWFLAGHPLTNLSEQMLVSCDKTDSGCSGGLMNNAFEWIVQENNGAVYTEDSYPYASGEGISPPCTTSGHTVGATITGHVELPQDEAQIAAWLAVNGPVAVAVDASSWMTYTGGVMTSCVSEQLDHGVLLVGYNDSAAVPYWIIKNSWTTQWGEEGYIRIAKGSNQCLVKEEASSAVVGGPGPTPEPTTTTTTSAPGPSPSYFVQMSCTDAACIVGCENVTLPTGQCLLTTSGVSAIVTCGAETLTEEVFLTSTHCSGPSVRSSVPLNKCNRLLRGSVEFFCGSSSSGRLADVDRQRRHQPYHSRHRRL
Briefly: Inhibition of T. cruzi cruzipain (Z-Phe-Arg-AMC fluorogenic substrate). Type of test: biochemical. The settings on record: percentage of enzymatic inhibition at 100 μM; read-out: Cruzipain % Inhib100. The protocol: Initially, we tested the dithioles as inhibitors of the protease cruzipain from T. cruzi at a concentration of 100 μM.
Cruzipain was purified to homogeneity from epimastigotes of the Tulahuen 2 strain by ConA-Sepharose affinity chromatography, as previously described. Cruzipain (2.5 μM ε = 58,285 M^−1·cm^−1) was incubated in 50 mM acetate buffer pH 5.5 with 50 mM DTT and 100 μM inhibitor was added, shaking the solution for 15 min at 27 °C. The derivatives were added diluted in DMSO, and the controls contained the same solvent concentration. The concentration of DMSO never exceeded 1% in the reaction medium. E-64 was used as a positive control of inhibition. Then, the fluorogenic substrate Z-Phe-Arg-AMC (100 μM) was added and the fluorescence was measured during 10 min at intervals of 3 s (excitation at 350 nm and emission at 460 nm) using a Varioskan Flash Spectrophotometer. From the slope of the negative control, we calculated the total (100%) enzyme activity, while the slopes obtained in the presence of the compounds yielded the percentage of remaining enzyme activity. The percentage of enzyme inhibition was determined as […]. The experiments were done in duplicate.

The test system of test [4] is epimastigotes of T. cruzi (Tulahuen 2 strain). The test is described as follows: Anti-T. cruzi test in vitro (epimastigote growth inhibition). Format: cell-based, Trypanosoma cruzi. The settings on record: for IC50: Trypanosoma cruzi, epimastigotes, Tulahuen 2 strain, triplicate, read-out: IC50 against T. cruzi. On the procedure: (§1) To evaluate the anti-trypanosomal activity of the synthesized 3H-[1,2]dithioles we used T. cruzi, Tulahuen 2 strain (discrete typing unit, DTU, TcVI [18]) in the epimastigote form. […] To establish the selectivity of the compounds against the parasite, unspecific cytotoxicity against mammalian cells (J774.1 murine macrophages) was studied for the most relevant derivatives. The selectivity indexes (SI) were also determined (Table 1).
We used epimastigotes of the Tulahuen 2 strain (DTU, Tc VI) growing in an axenic milieu (BHI-Tryptose). Cells from a 5–7-day-old culture were inoculated in fresh culture milieu to give an initial concentration of 1 × 10^6 cells/mL. The absorbance at 600 nm of the cells in culture was measured every day. At day 5, the milieu was inoculated with different quantities of the compounds from a stock solution in DMSO (DMSO concentration in the culture milieu never exceeded 0.4%). The control was made in the presence of 0.4% DMSO and in the absence of compounds. […] At day 5, the absorbance of the culture was measured and related to the control. The IC50 value was taken as the concentration of drug needed to reduce the absorbance ratio to 50%.

Test [5] has as its target T2, Trypanosoma cruzi triosephosphate isomerase (TcTIM) (Trypanosoma cruzi, UniProt P52270).
T2 construct: made in house; host or cells: Escherichia coli
Briefly: Inhibition of enzymatic activity of TcTIM. Format: biochemical. As to conditions: for inhibition at 25 µM: percentage of enzymatic inhibition at 25 μM, read-out: TcTIM % Inhib25; for inhibition at 200 µM: percentage of enzymatic inhibition at 200 μM, read-out: TcTIM % Inhib200. On the procedure:
In order to investigate if the 3H-[1,2]dithioles inhibit TcTIM, we initially tested the inhibitory capacity of the compounds at a concentration of 200 μM and then at 25 μM.
Expression and purification of protein: TcTIM was expressed in Escherichia coli and purified as described in the literature. After purification, the enzyme, dissolved in 100 mM triethanolamine, 10 mM EDTA and 1 mM dithiothreitol (pH 8), was precipitated with ammonium sulfate (75% saturation) and stored at 4 °C. Before use, extensive dialysis against 100 mM triethanolamine/10 mM EDTA (pH 7.4) was performed. Protein concentration was determined by absorbance at 280 nm (ε = 36,440 M^−1·cm^−1).
Enzymatic activity assays. Enzymatic activity was determined following the conversion of glyceraldehyde 3-phosphate into dihydroxyacetone phosphate. The decrease in absorbance at 340 nm was followed in a multicell Cary spectrophotometer at 25 °C. The reaction mixture (1 mL, pH 7.4) contained 100 mM triethanolamine, 10 mM EDTA, 0.2 mM NADH, 1 mM glyceraldehyde 3-phosphate, and 0.9 units of α-glycerol phosphate dehydrogenase. The reaction was initiated by addition of 5 ng/mL of the TcTIM.
For inactivation studies, TcTIM was incubated at a concentration of 5 mg/mL in a buffer containing 100 mM triethanolamine, 10 mM EDTA, pH 7.4 and 10% of DMSO at 36 °C. The mixture also contained the compounds at the indicated concentrations. Compounds were dissolved in DMSO. After 2 h, […] was withdrawn and added to 1 mL of reaction mixture for the activity assay. None of the molecules tested here affected the activity of α-glycerol phosphate dehydrogenase, the enzyme used for trapping the product.
The IC50 value was taken as the concentration of drug needed to reduce the enzymatic activity to 50%. The experiments were performed in triplicate.

Test [6] addresses T1, cruzipain. Briefly: Inhibition of T. cruzi cruzipain (Z-Phe-Arg-AMC fluorogenic substrate). Format: biochemical. As to conditions: isolated enzyme.
The subject of test [7] is J774.1 murine macrophages. The test is described as follows: Unspecific in vitro cytotoxicity of mammalian cells (MTT). Type of test: cell-based. As to conditions: Mus musculus, 48 h exposure, read-out: IC50 against Macrophages. On the procedure: as §1
J774.1 murine macrophage cells (ATCC, Manassas, VA, USA) were grown in DMEM culture milieu containing 4 mM L-glutamine and supplemented with 10% heat-inactivated fetal calf serum. […] Afterwards, cells were exposed for 48 h to the compounds (25–400 μM) or vehicle for control (0.4% DMSO), and additional controls (cells in medium) were used in each test. Cell viability was then assessed by measuring the mitochondria-dependent reduction of MTT (3-(4,5-dimethylthiazol-2-yl)-2,5-diphenyltetrazolium bromide) to formazan. For this purpose, MTT in sterile PBS (0.2% glucose) pH 7.4 was added to the macrophages to achieve a final concentration of 0.1 mg/mL and the cells were incubated at 37 °C for 3 h. After removing the medium, formazan crystals were dissolved in 180 μL of DMSO and 20 μL of MTT buffer (0.1 M glycine, 0.1 M NaCl, 0.5 mM EDTA, pH 10.5) and the absorbance at 560 nm was measured. The IC50 was defined as the drug concentration at which 50% of the cells were viable, relative to the control (no drug added), and was determined by analysis using OriginLab8.5® sigmoidal regression (% of viable cells vs. logarithm of the compound concentration). Samples were performed in triplicate.

In test [8] the test system is T. cruzi cells (Y strain, DTU Tc II). Briefly: 1H-NMR study of the excreted metabolites. Type of test: cell-based, Trypanosoma cruzi. On the procedure:
To gain insight into the changes promoted by the active 3-propylidene[1,2]dithioles 2 and 14 in some biochemical pathways, the metabolites excreted by the parasite using ^1H-NMR spectroscopy were analyzed. Changes in the excreted metabolites by T. cruzi Y strain (DTU Tc II, [24]), when the parasite cells were exposed to a bioactive compound, could be indicative of the modification of the biochemical pathway(s) by the agents. Spectra of the cell-free milieu of treated parasites were compared with those of the untreated T. cruzi-free milieu as the control. We focused mainly on the changes of excreted salts of the carboxylic acids, lactate (Lac), acetate (Ace), pyruvate (Pyr), and succinate (Succ) and the amino acids, alanine (Ala) and glycine (Gly), among the most relevant modified metabolites.
For the ^1H-NMR spectroscopic studies, T. cruzi cells (Y strain, DTU Tc II) treated for 2 days, with each studied compound at concentrations corresponding to 2 × IC50 values (5 mL) were centrifuged at 1500× g for 10 min at 4 °C. The pellet was discarded, and the parasite-free supernatant was stored at −20 °C until use. Before measuring, DMF (0.1 mL, 10 mM) as the internal standard and D2O (0.1 mL) were added to the supernatant (0.3 mL). ^1H-NMR experiments were recorded at 20 °C on a Bruker Advance DPX-400 spectrometer (Bruker), operating at 400.132 MHz, with a 5 mm broadband inverse geometry probe. The acquisition parameters included: 90° pulse (zgpr, advance-version v 1.7.10.2, 1D sequence with f1 presaturation), 128 scans, and spectral width of 14.983 ppm. The acquisition time was 1.3664 s. Signal intensities were calculated by performing appropriate baseline corrections and then integrating the area under each of the resonances using MestRe-C NMR software. Spectra were analyzed using the Topspin 1.3 software package. The spectra were registered with water suppression in 5 mm NMR (Aldrich, St. Louis, MO, USA) sample tubes. The chemical displacements used to identify the respective metabolites were previously confirmed by adding each analyzed metabolite to the studied supernatant, as well as by the study of a control solution with 4 μg/mL of each metabolite in buffer (phosphate, pH = 7.4). Each run was done at least in triplicate and the Student t test was used to analyze the significance of the changes. […]

[9] abbreviates: IC50 × 2, 2 days, DMF internal standard.

T2 sequence (P52270 whole entry): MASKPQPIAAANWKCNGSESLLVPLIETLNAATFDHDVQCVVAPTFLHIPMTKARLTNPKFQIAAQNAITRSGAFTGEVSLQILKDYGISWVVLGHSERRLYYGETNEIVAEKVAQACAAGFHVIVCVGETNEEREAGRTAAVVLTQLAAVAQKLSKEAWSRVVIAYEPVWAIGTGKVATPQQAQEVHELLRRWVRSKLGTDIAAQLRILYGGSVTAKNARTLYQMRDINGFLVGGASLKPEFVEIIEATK

One may read the IC50 as the midpoint of a concentration-inhibition curve. In the case of `CN(C/C=C/C#CC(C)(C)C)Cc1cccc2ccccc12` [terbinafine, reference compound], the IC50 in the test on T. cruzi was 44.7 µM. Further, the “Changes in membrane sterols and intermediates (squalene, ergosterol)” value in [1] is “accumulate squalene and deplete ergosterol”.

Regarding `CC1CS(=O)(=O)CCN1/N=C/c1ccc([N+](=O)[O-])o1` (centres unmarked) [Nfx, nifurtimox], in [2], the IC50 was 8 ± 1 µM.

In the case of `COc1ccc(C2=C/C(=C(\SCC(C)=O)C(C)=O)SS2)cc1` [Derivative 15], at cruzipain [3], the inhibition at 100 µM worked out at 85.4 ± 0.2%. The IC50 in test [4] was 5.9 ± 1.2 µM; on cruzipain [6], 15.1 ± 2.5 µM; in [7] it was less than 24 µM. In addition, the “SI (selectivity index)” value in [4] (macrophages (J774.1) vs T. cruzi epimastigotes) was less than 4.1. For the same compound, in test [5], the inhibition at 25 µM is 62 ± 3%. Also, the inhibition at 200 µM in [5] amounted to 86%.

Turning to `O=C(CS/C(C(=O)c1ccc2ccccc2c1)=C1\C=C(c2ccc(O)cc2)SS1)c1ccc2ccccc2c1` [Derivative 14], the inhibition at 100 µM at cruzipain [3] amounted to 66.5 ± 0.3%. Moreover, in [4], the IC50 is 4.9 ± 1.1 µM. Further, in test [5], the inhibition at 25 µM came to 38 ± 3.5% and the inhibition at 200 µM came out at 70%. For the same compound, in test [8] (setting [9]), the “Concentration of excreted Ace” value is on record as 26.41 ± 1.44, the “Concentration of excreted Ala” value was 20.65 ± 1.27, the “Concentration of excreted Gly” value turned out to be 2.48 ± 0.14 and the “Concentration of excreted Lac” value came out at 10.41 ± 0.58. For the same compound, in test [8] (setting [9]), the “Concentration of excreted Pyr” value was 9.47 ± 0.53 and the “Concentration of excreted Succ” value was found to be 7.34 ± 0.65. The “Change of excreted metabolites compared to the control” value in test [8] (IC50 × 2, p < 0.05 Student's t-test) is listed as “did not modify the excreted catabolites”. The IC50 in test [7] came to 63 ± 2 µM.

On to `O=C(Cn1ccnc1[N+](=O)[O-])NCc1ccccc1` [Bnz, benznidazole], for which, in [2], the IC50 is 7 ± 1 µM.
